Test results published in the supplement of paper PMC10307832.

Tests used:
Assay in all cases: relative viability (nuclei count vs DMSO), 5 days (fraction); higher = more cells survive
Dasatinib + Phenformin = compound: Cc1nc(Nc2ncc(C(=O)Nc3c(C)cccc3Cl)s2)cc(N2CCN(CCO)CC2)n1 [Dasatinib] + N=C(N)NC(=N)NCCc1ccccc1 [Phenformin] (partner 250 µM)
Procedure, shortened: (§1)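 One day after seeding in 1536-well plates, lung cancer cell lines were dosed by pin tool. Dosing was either single-drug or a fixed anchor-drug dose plus five library-drug doses (not always all listed) in √10 steps. After 5 days, nuclei were stained in one fix-and-stain step and counted on 4× images, and relative viability is the nuclei count of treated wells over that of vehicle wells, given as the median of duplicate plates.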

XMD13-2 + Decitabine = compound: C1CC1C(=O)NC2=NNC3=C2C=CC(=C3)C4=CC(=CC=C4)C(=O)NC5CC5 [XMD13-2] + Nc1ncn([C@H]2C[C@H](O)[C@@H](CO)O2)c(=O)n1 [Decitabine] (partner 2 µM)
Procedure, shortened: as §1

ALW-II-49-7 + Crizotinib = compound: Cc1ccc(C(=O)Nc2cccc(C(F)(F)F)c2)cc1Nc1cncc(C(N)=O)c1 [ALW-II-49-7] + C[C@@H](Oc1cc(-c2cnn(C3CCNCC3)c2)cnc1N)c1c(Cl)ccc(F)c1Cl [Crizotinib] (partner 1 µM)
Procedure, shortened: as §1

ALW-II-49-7 + OSI-027 = compound: Cc1ccc(C(=O)Nc2cccc(C(F)(F)F)c2)cc1Nc1cncc(C(N)=O)c1 [ALW-II-49-7] + COc1cccc2cc(-c3nc([C@H]4CC[C@H](C(=O)O)CC4)n4ncnc(N)c34)[nH]c12 [OSI-027] (partner 0.5 µM)
Procedure, shortened: as §1

Row | Cell Line | relative viability (Dasatinib + Phenformin; first compound 0.005 µM) | relative viability (Dasatinib + Phenformin; first compound 0.01581 µM) | relative viability (Dasatinib + Phenformin; first compound 0.05 µM) | relative viability (Dasatinib + Phenformin; first compound 0.1581 µM) | relative viability (Dasatinib + Phenformin; first compound 0.5 µM) | relative viability (XMD13-2 + Decitabine; first compound 0.05 µM) | relative viability (XMD13-2 + Decitabine; first compound 0.1581 µM) | relative viability (XMD13-2 + Decitabine; first compound 0.5 µM) | relative viability (XMD13-2 + Decitabine; first compound 1.581 µM) | relative viability (XMD13-2 + Decitabine; first compound 5 µM) | relative viability (ALW-II-49-7 + Crizotinib; first compound 0.08 µM) | relative viability (ALW-II-49-7 + Crizotinib; first compound 0.253 µM) | relative viability (ALW-II-49-7 + Crizotinib; first compound 0.8 µM) | relative viability (ALW-II-49-7 + Crizotinib; first compound 2.53 µM) | relative viability (ALW-II-49-7 + Crizotinib; first compound 8 µM) | relative viability (ALW-II-49-7 + OSI-027; first compound 0.08 µM) | relative viability (ALW-II-49-7 + OSI-027; first compound 0.253 µM) | relative viability (ALW-II-49-7 + OSI-027; first compound 0.8 µM) | relative viability (ALW-II-49-7 + OSI-027; first compound 2.53 µM) | relative viability (ALW-II-49-7 + OSI-027; first compound 8 µM)
1 | NCI-H1755 | 0.477 | 0.46 | 0.423 | 0.352 | 0.218 | 0.703 | 0.719 | 0.665 | 0.736 | 0.667 | 0.917 | 0.859 | 0.753 | 0.79 | 0.69 | 0.789 | 0.728 | 0.7 | 0.67 | 0.532
2 | PC-14 | 0.618 | 0.681 | 0.553 | 0.339 | 0.152 | 0.239 | 0.229 | 0.188 | 0.193 | 0.254 | 0.911 | 0.953 | 0.841 | 0.863 | 0.866 | 0.815 | 0.824 | 0.622 | 0.645 | 0.579
3 | NCI-H322M | 0.604 | 0.61 | 0.443 | 0.206 | 0.195 | 0.73 | 0.718 | 0.791 | – | 0.742 | 0.928 | 0.689 | 0.775 | 1.04 | 0.71 | 0.54 | 0.469 | 0.444 | 0.447 | 0.406
4 | NCI-H1666 | 0.517 | 0.26 | 0.548 | 0.498 | 0.451 | 0.738 | 0.734 | 0.689 | 0.666 | 0.735 | 0.948 | 0.964 | 0.909 | 1.06 | 0.965 | 0.905 | 0.869 | 0.778 | 1.02 | 0.816
5 | A-427 | 0.326 | 0.262 | 0.277 | 0.266 | 0.225 | 0.574 | 0.553 | 0.612 | – | 0.503 | 1.01 | 0.816 | 0.855 | 0.878 | 0.969 | 0.412 | 0.484 | 0.472 | 0.444 | 0.473
6 | NCI-H1651 | 0.355 | 0.285 | 0.308 | 0.35 | 0.241 | 0.642 | 0.642 | 0.63 | 0.609 | 0.81 | 0.947 | 0.767 | 0.823 | 0.862 | 0.835 | 0.668 | 0.629 | 0.543 | 0.687 | 0.572
7 | NCI-H520 | 0.481 | 0.339 | 0.255 | 0.181 | 0.179 | 0.531 | 0.506 | 0.534 | 0.549 | 0.442 | 0.751 | 0.638 | – | 0.682 | 0.723 | 0.258 | 0.249 | 0.25 | 0.242 | 0.262
8 | 201T | 0.446 | 0.33 | 0.338 | 0.341 | 0.221 | 0.861 | 0.839 | 0.905 | 0.86 | 0.902 | 1.04 | 1.08 | 1.04 | 1.06 | 1.04 | 0.68 | 0.841 | 0.462 | 0.493 | 0.684
9 | NCI-H460 | 0.47 | 0.484 | 0.443 | 0.336 | 0.314 | 0.607 | 0.513 | 0.54 | 0.552 | 0.454 | 1 | 0.877 | 0.802 | 1.01 | 0.793 | 0.467 | 0.641 | 0.81 | 0.682 | 0.115
10 | NCI-H596 | 0.728 | 0.52 | 0.712 | 0.44 | 0.402 | 0.934 | 1.02 | 1 | 1.03 | 1.29 | 0.892 | 0.911 | 0.978 | 0.997 | 1.07 | 0.777 | 0.749 | 0.589 | 0.624 | 0.776
11 | HARA | 0.422 | 0.39 | 0.472 | 0.273 | 0.0965 | 0.654 | 0.558 | 0.584 | 0.613 | 0.492 | 0.914 | 0.982 | 1.01 | 1.25 | 1.23 | 0.547 | 0.441 | 0.298 | 0.387 | 0.442
12 | NCI-H2170 | 0.426 | 0.379 | 0.357 | 0.294 | 0.177 | 0.507 | 0.466 | 0.506 | 0.459 | 0.43 | 1.3 | 1.12 | 1.3 | 1.21 | 1.09 | 0.71 | 0.931 | 0.67 | 0.664 | 0.703
13 | NCI-H2126 | 0.56 | 0.521 | 0.471 | 0.39 | 0.285 | 0.598 | 0.56 | 0.545 | 0.539 | 0.619 | 0.857 | 0.976 | 1.06 | 0.998 | 0.987 | 0.664 | 0.64 | 0.65 | 0.607 | 0.653
14 | HCC-827 | 0.411 | 0.362 | 0.328 | 0.293 | 0.104 | 0.317 | 0.365 | 0.281 | 0.719 | 0.343 | 0.898 | 0.913 | 0.886 | 0.941 | 0.906 | 0.737 | 0.696 | 0.714 | 0.621 | 0.64
15 | ABC-1 | 0.22 | 0.256 | 0.245 | 0.221 | 0.238 | 1.13 | 1.33 | 1.24 | – | 1.11 | 0.978 | 0.92 | 0.838 | 1.05 | 1.03 | 0.404 | 0.423 | 0.481 | 0.494 | 0.379
16 | NCI-H650 | 0.496 | 0.438 | 0.433 | 0.375 | 0.317 | 0.311 | 0.315 | 0.329 | 0.296 | 0.306 | 0.679 | 0.699 | 0.62 | 0.43 | 0.516 | 0.519 | 0.509 | 0.511 | 0.419 | 0.391
17 | BEN | 0.249 | 0.213 | 0.249 | 0.241 | 0.206 | 0.803 | 0.705 | 0.719 | 0.648 | 0.705 | 0.722 | 0.866 | 0.81 | – | 0.834 | 0.548 | 0.317 | 0.294 | 0.288 | 0.403
18 | ChaGo-K-1 | 0.546 | 0.463 | 0.41 | 0.442 | 0.377 | 0.521 | 0.53 | 0.528 | 0.511 | 0.496 | 1.13 | 1.12 | 1.08 | 0.972 | 1.04 | 0.472 | 0.622 | 0.616 | 0.496 | 0.429
19 | NCI-H23 | 0.841 | 0.752 | 0.929 | 0.655 | 0.607 | 0.271 | 0.335 | 0.329 | 0.33 | 0.301 | 0.419 | 0.475 | 0.493 | 0.598 | 0.509 | 0.52 | 0.492 | 0.476 | 0.562 | 0.475
20 | NCI-H1975 | 0.362 | 0.347 | 0.348 | 0.257 | 0.188 | 0.373 | 0.381 | 0.412 | 0.414 | 0.333 | 0.838 | 1.04 | 0.852 | 0.912 | 0.893 | 0.555 | 0.785 | 0.72 | 0.553 | 0.486
21 | COR-L 105 | 0.441 | 0.378 | 0.312 | 0.278 | 0.16 | 0.747 | 0.717 | 0.755 | 0.66 | 0.638 | 0.737 | 0.805 | 0.864 | 0.653 | 0.72 | 0.644 | 0.719 | 0.66 | 0.644 | 0.753
22 | LK-2 | 0.464 | 0.23 | 0.257 | 0.166 | 0.163 | 0.378 | 0.297 | 0.274 | 0.281 | 0.329 | 0.216 | 0.211 | 0.215 | 0.262 | 0.226 | 0.202 | 0.205 | 0.213 | – | 0.186
23 | EKVX | 0.218 | 0.21 | 0.177 | 0.136 | 0.102 | 0.395 | 0.32 | 0.419 | – | 0.307 | 0.989 | 0.79 | 0.969 | 0.718 | 0.818 | 0.579 | 0.773 | 0.578 | 0.653 | 0.679
24 | NCI-H2009 | 0.554 | 0.47 | 0.366 | 0.206 | 0.187 | 0.372 | 0.394 | 0.427 | 0.449 | 0.387 | 1.02 | 1.02 | 0.964 | 0.835 | 0.729 | 0.615 | 0.67 | 0.532 | 0.408 | 0.406
25 | NCI-H838 | 0.481 | 0.387 | 0.302 | 0.204 | 0.176 | 0.386 | 0.414 | 0.477 | 0.436 | 0.387 | 0.851 | 0.871 | 0.854 | 0.788 | 1 | 0.352 | 0.385 | 0.389 | 0.434 | 0.378
26 | NCI-H2085 | 0.636 | 0.651 | 0.458 | 0.215 | 0.162 | 0.622 | 0.525 | 0.593 | 0.51 | 0.563 | 0.762 | 0.889 | 0.898 | 0.905 | 0.938 | 0.778 | 0.748 | 0.625 | 0.806 | 0.738
